tested on: THP-1 viability, CellTiter-Glo luminescence, 72 h; assay: THP-1 cell cytotoxicity, dose response, cytotoxicity control for Salmonella PhoP regulon inhibitors, S. typhimurium screen hits (AID 2253)

| SMILES | EC50 [µM] |
| --- | --- |
| NCCc1c(-c2ccccc2)n(-c2ccccc2)c2ccccc12 | 4.76 |
| O=[N+]([O-])c1ccc(NCCCNS(=O)(=O)c2ccccc2)c(Cl)c1 | 42.4 |
| Oc1c(CN2CCN(c3ccc(F)cc3)CC2)cc(Cl)c2cccnc12 | 6.36 |
| Brc1cccc(CNc2nc3ccccc3n2CCN2CCCCC2)c1 | 26.3 |
| CC(O)CNCCNCc1c(OCc2ccccc2)ccc2ccccc12 (stereo not drawn) | 14.2 |
| OCCCNc1nc(-c2ccc(Cl)cc2)nnc1-c1ccc(Br)cc1 | 19.8 |
| CN(C)CC(C(=O)c1ccccc1)c1ccccc1 (stereo not drawn) | 4.94 |
| c1ccc2c(NC3=NCCS3)cccc2c1 | 31.8 |
| CN1CCc2c(sc(NC(=O)c3ccc([N+](=O)[O-])o3)c2C(N)=O)C1 | 0.61 |
| NC1=NC(=Nc2ccc(Br)cc2)c2ccccc21 | 25.8 |
| Cc1ccc(C=Nc2ccccc2C(N)=O)cc1 | 8.83 |
| O=C1C(SCCO)=C(SCCO)C(=O)c2ccccc21 | 8.13 |
| COc1cccc(Nc2nc(NCC3CCCO3)c3ccccc3n2)c1 (stereo not drawn) | 2.88 |
| Cc1ccc2nc(NNC(=O)c3ccc(S(=O)(=O)N4CCc5ccccc5C4)cc3)sc2c1 | 1.83 |
| Cc1cccc(C)c1NC(=O)CCCSc1nnc(-c2ccc(Cl)cc2)n1-c1ccccc1 | 27.6 |
| CCCCCCCCOC(=O)C1=C(C)Nc2nnnn2C1c1cccs1 (stereo not drawn) | 21.8 |
| CCC(C)(C)c1ccc(OCCCC[n+]2ccc(C)cc2)c(C(C)(C)CC)c1 | 1.48 |
| C/C(CC(=O)Nc1ccc(Cl)c(C(F)(F)F)c1)=N\NC(=O)c1cccc(O)c1 | 24.2 |
| Nc1nc(F)nc2c1ncn2[C@@H]1O[C@H](CO)[C@@H](O)[C@H]1O | 0.3 |
| COC(=O)C(C)NC(=S)N1CCN(c2c(F)cc3c(=O)c(C(=O)O)cn(C4CC4)c3c2OC)CC1C (stereo not drawn) | 20 |

| SMILES | EC50 [µM] |
| --- | --- |
| Cc1cccc(Sc2c([N+](=O)[O-])ncn2C)c1 | 32 |
| CCCCCCCCNC(C)C(O)c1ccc(SC(C)C)cc1 (stereo not drawn) | 10.7 |
| Oc1c(C(c2ccccn2)N2CCOCC2)ccc2cccnc12 (stereo not drawn) | 13.8 |
| COc1ccc(-c2c/c(=N\c3nc(-c4ccccc4)c(C)s3)c3ccccc3o2)cc1O | 2.36 |
| O=C(N/N=C/c1cc(Cl)ccc1O)c1cccnc1 | 2.08 |
| c1ccc2c(c1)CCN(c1ncnc3c1[nH]c1ccccc13)C2 | 10.7 |
| CCC(C)(C)c1ccc(OCCCC[n+]2ccccc2)c(C(C)(C)CC)c1 | 1.2 |
| O=C1c2ccccc2NC(c2ccc(-c3cccc(Cl)c3)o2)N1O (stereo not drawn) | 24.6 |
| CCCCCCCSc1cc(OC)c(CCN(C)C)cc1OC | 14.1 |
| Oc1cccc(Nc2c3ccccc3nc3ccccc23)c1 | 12 |
| COc1ccc(OC)c(C2=Nn3c(nnc3-c3cc(OC)c(OC)c(OC)c3)SC2)c1 | 22.6 |
| Clc1ccc(-c2c[n+](Cc3ccc(Cl)cc3Cl)c3n2CCCCC3)cc1 | 3.61 |
| C1CCC(C(CC2CCCCN2)C2CCCCC2)CC1 (stereo not drawn) | 5.45 |
| C[C@H]1c2cccc(O)c2C(O)=C2C(=O)[C@]3(O)C(O)=C(C(N)=O)C(=O)[C@@H](N(C)C)[C@@H]3[C@@H](O)[C@@H]21 | 27.5 |
| O=[N+]([O-])c1ccc(Sc2nc3ccccc3o2)c([N+](=O)[O-])c1 | 1.94 |
| Oc1ccc(N2CCN(Cc3ccc(OCCCN4CCCCC4)cc3)CC2)cc1 | 29.5 |
| Nc1nonc1-n1nnc(C(=O)N/N=C/c2cc(Br)ccc2O)c1CSC1=NCCS1 | 1.54 |
| Cc1cccc(Nc2cc(C)c3c(O)cccc3n2)c1C | 8.98 |
| O=C1c2ccccc2C(=O)c2[nH]c(=O)[nH]c21 | 4.83 |
| O=C1/C(=C/c2ccccc2)NC(=S)N1C(c1ccccc1)c1ccccc1 | 4.48 |

| SMILES | EC50 [µM] |
| --- | --- |
| COc1cccc(/C=N/NC(=O)c2ccc(-c3ccccc3)cc2)c1O | 1.08 |
| CCCCCCOC(=O)Sc1nc2ccccc2o1 | 35 |
| CCCCOc1ccc(Br)cc1CSC(=N)N | 5.78 |
| Nc1ccc(Nc2ccccc2)cc1 | 11.6 |
| COc1ccc(CCNC(=S)Nc2cccc3ccccc23)cc1 | 31.5 |
| COc1ccc(Nc2cc(C)nc(NCc3ccccc3)n2)cc1 | 10.1 |
| CN1CCN(CCCN2c3ccccc3Sc3ccc(Cl)cc32)CC1 | 14.1 |
| Oc1cccc2ccc(Nc3ccccn3)nc12 | 2.16 |
| N#Cc1c(NC(=O)c2cnccn2)sc2c1CCCC2 | 9.25 |
| Cc1ccccc1OCCCCCn1ccnc1 | 24.4 |
| CN(C)CCCN(C(=O)CCc1ccccc1)c1nc2ccc(Cl)cc2s1 | 25.9 |
| Oc1ccc(/C=N/NC(=S)Nc2cccnc2)c(O)c1 | 3.21 |
| CC(C)C(=O)NC(c1cccc([N+](=O)[O-])c1)c1ccc2cccnc2c1O (stereo not drawn) | 0.51 |
| CCOC(=O)N1CCN(S(=O)(=O)c2ccc(C(=O)NNc3nc4c(C)cc(C)cc4s3)cc2)CC1 | 3.28 |
| CCCCCCCCCCCCCCCC[n+]1cccc(C(=O)N(CC)CC)c1 | 0.64 |
| N#CC(C#N)=c1ccc2c(c1)NC1(CCCCC1)N=2 | 4.08 |
| O=C(/C=C/c1ccco1)NC(=S)Nc1ccc(N2CCCC2)cc1 | 9.59 |
| Cc1ccc(S(=O)(=O)N(CC(=O)N=Nc2c(O)[nH]c3ccccc23)c2ccc(C)c(C)c2)cc1 | 12.4 |

— PubChem BioAssay AID2253 (Southern Research Specialized Biocontainment Screening …, 2010)
